molecular target: T1, hITK enzyme (FLAG-tagged full-length hITK) (Homo sapiens, UniProt Q08881); assay: ITK inhibitory activity (HTRF kinase assay, biotinylated GST-SLP76 substrate); assay type: biochemical; conditions: IC50 calculated from the 2 test compound concentrations sandwiching 50% ITK inhibitory rate
T1 construct: strongly expressing FLAG-tagged full-length hITK in Sf9 cells; FLAG; made in house; host or cells: Sf9 insect cells (ITK); Escherichia coli (GST-SLP76 substrate)
T1 sequence (Q08881 1-620): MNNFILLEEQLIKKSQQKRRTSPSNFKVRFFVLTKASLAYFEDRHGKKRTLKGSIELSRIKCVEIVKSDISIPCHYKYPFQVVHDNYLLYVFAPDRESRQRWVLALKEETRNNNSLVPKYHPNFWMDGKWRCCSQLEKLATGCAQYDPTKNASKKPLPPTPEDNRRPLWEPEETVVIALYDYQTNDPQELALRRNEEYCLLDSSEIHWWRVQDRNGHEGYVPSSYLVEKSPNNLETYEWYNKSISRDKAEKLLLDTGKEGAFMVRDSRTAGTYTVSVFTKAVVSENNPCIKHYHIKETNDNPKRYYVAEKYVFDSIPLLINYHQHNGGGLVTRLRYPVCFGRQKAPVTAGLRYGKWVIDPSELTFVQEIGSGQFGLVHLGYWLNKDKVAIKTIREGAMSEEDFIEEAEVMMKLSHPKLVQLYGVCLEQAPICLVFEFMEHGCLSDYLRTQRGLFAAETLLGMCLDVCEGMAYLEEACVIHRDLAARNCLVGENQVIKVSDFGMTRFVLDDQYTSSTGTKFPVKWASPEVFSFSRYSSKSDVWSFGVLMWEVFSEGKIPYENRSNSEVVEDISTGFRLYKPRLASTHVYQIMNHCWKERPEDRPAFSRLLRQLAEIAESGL
Experimental: (1) Preparation of hITK Enzyme
hITK enzyme was prepared by strongly expressing FLAG-tagged full-length hITK in Sf9 cells, and purifying same by anti-FLAG antibody column.
(2) Preparation of biotinylated GST-SLP76
Biotinylated GST-SLP76 was prepared by strongly expressing GST-tagged SLP76 (aa95-175) in Escherichia coli, purifying same by glutathion sepharose column and biotinylating same.
(3) Preparation of Solution
(i) buffer for dilution: 20 mmol/L 3-(N-morpholino)propanesulfonic acid (pH 7.0) (DOJINDO LABORATORIES), 10 mmol/L magnesium chloride (Sigma-Aldrich Corporation), 1 mmol/L dithiothreitol (Nacalai Tesque, Inc.), 0.1% gelatin (Sigma-Aldrich Corporation)
(ii) substrate solution: 0.2 μg/mL biotinylated GST-SLP76, 100 μmol/L ATP (Sigma-Aldrich Corporation), prepared with buffer for dilution
(iii) test compound solution: test compound, 50% dimethyl sulfoxide (DMSO), prepared with buffer for dilution
(iv) enzyme solution: 50 ng/mL hITK enzyme, prepared with buffer for dilution
(v) control solution: solution after removal of test compound from the mixture of the above-mentioned (i), (ii) and (iii)
(vi) blank solution: solution after removal of ATP from the mixture of the above-mentioned (i), (ii) and (iii)
(vii) detection buffer: 0.1 μg/mL Anti-Phosphotyrosine (PT66)-Cryptate (Cisbio), 2.5 μg/mL streptavidin-binding XL665 (Cisbio), 50 mmol/L 4-(2-hydroxyethyl)-1-piperazineethanesulfonic acid (pH 7.4) (Nacalai Tesque, Inc.), 30 mmol/L EDTA (NipponGene), 0.1% TritonX (Sigma-Aldrich Corporation), 200 mmol/L potassium fluoride (Wako Pure Chemical Industries, Ltd.), 0.05% bovine serum albumin (Sigma-Aldrich Corporation) (4) Measurement of ITK Inhibitory Activity
A substrate solution (25 μL/well), a test compound solution (5 μL/well) and an enzyme solution (20 μL/well) were added into 96 well half-area white plate (plate, Corning Incorporated 3642) to start a kinase reaction. The plate was stood still at room temperature for 10 min. Then, a detection buffer (50 μL/well) was added to the plate. After 2 hr from the addition of the detection buffer, fluorescence intensity at 620 nm (excited at 337 nm), and fluorescence intensity at 665 nm ([…]) were measured by a fluorescence microplate reader.
The Ratio (fluorescence intensity at 665 nm/fluorescence intensity at 620 nm×10000) of each test compound was calculated from the measured fluorescence intensity. Simultaneously, the measurement was performed using a blank solution and a control solution, and % of control value of each test compound was calculated from the following formula. % of control=(Ratio of test compound−Ratio of blank)/(Ratio of control−Ratio of blank)×100 ITK inhibitory rate (%)=100−(% of control)
The IC50 value was calculated from the test compound concentrations at 2 points sandwiching 50% ITK inhibitory rate.
In the test for the compounds of Examples 380 and 381, the ATP concentration of the substrate solutions was 6 μmol/L.

Compound | IC50
CC(O)C(=O)N(C)c1ccc2cc(-c3n[nH]c4c3CCC(C)(C)C4)[nH]c2c1 (centres unmarked) [Example 46] | 5 nM
COCC(OC)C(=O)N(C)c1ccc2cc(-c3n[nH]c4c3CCC(C)(C)C4)[nH]c2c1 (centres unmarked) [Example 47] | 8 nM
COC(CO)C(=O)N(C)c1ccc2cc(-c3n[nH]c4c3CCC(C)(C)C4)[nH]c2c1 (centres unmarked) [Example 48] | 6 nM
CCC(O)C(=O)N(C)c1ccc2cc(-c3n[nH]c4c3CCC(C)(C)C4)[nH]c2c1 (centres unmarked) [Example 49] | 3 nM
CCC(OC)C(=O)N(C)c1ccc2cc(-c3n[nH]c4c3CCC(C)(C)C4)[nH]c2c1 (centres unmarked) [Example 50] | 4 nM
CN(C(=O)NCc1ccccc1)c1ccc2cc(-c3n[nH]c4c3CCC(C)(C)C4)[nH]c2c1 [Example 51] | 26 nM
CN(C(=O)C1CCCO1)c1ccc2cc(-c3n[nH]c4c3CCC(C)(C)C4)[nH]c2c1 (centres unmarked) [Example 52] | < 3 nM
COCC(O)C(=O)N(C)c1ccc2cc(-c3n[nH]c4c3CCC(C)(C)C4)[nH]c2c1 (centres unmarked) [Example 53] | 8 nM
CN(C(N)=O)c1ccc2cc(-c3n[nH]c4c3CCC(C)(C)C4)[nH]c2c1 [Example 54] | 18 nM
CCCOCC(=O)N(C)c1ccc2cc(-c3n[nH]c4c3CCC(C)(C)C4)[nH]c2c1 [Example 55] | < 3 nM
CC(C)OCC(=O)N(C)c1ccc2cc(-c3n[nH]c4c3CCC(C)(C)C4)[nH]c2c1 [Example 56] | < 3 nM
CN(C(=O)C(=O)c1ccccc1)c1ccc2cc(-c3n[nH]c4c3CCC(C)(C)C4)[nH]c2c1 [Example 57] | 17 nM
COCC(C)C(=O)N(C)c1ccc2cc(-c3n[nH]c4c3CCC(C)(C)C4)[nH]c2c1 (centres unmarked) [Example 58] | 6 nM
Cc1cc(C(=O)N(C)c2ccc3cc(-c4n[nH]c5c4CCC(C)(C)C5)[nH]c3c2)no1 [Example 59] | 7 nM
CN(C(=O)C1CCOCC1)c1ccc2cc(-c3n[nH]c4c3CCC(C)(C)C4)[nH]c2c1 [Example 60] | 5 nM
CC(CO)C(=O)N(C)c1ccc2cc(-c3n[nH]c4c3CCC(C)(C)C4)[nH]c2c1 (centres unmarked) [Example 61] | 6 nM
COCCC(=O)N(C)c1ccc2cc(-c3n[nH]c4c3CCC(C)(C)C4)[nH]c2c1 [Example 62] | 4 nM
CN(C(=O)CCO)c1ccc2cc(-c3n[nH]c4c3CCC(C)(C)C4)[nH]c2c1 [Example 63] | 6 nM
CC(=O)N1CCC(C(=O)N(C)c2ccc3cc(-c4n[nH]c5c4CCC(C)(C)C5)[nH]c3c2)CC1 [Example 64] | 6 nM
CN1CCC(C(=O)N(C)c2ccc3cc(-c4n[nH]c5c4CCC(C)(C)C5)[nH]c3c2)CC1 [Example 65] | 55 nM
CN(C(=O)C1CCOC1)c1ccc2cc(-c3n[nH]c4c3CCC(C)(C)C4)[nH]c2c1 (centres unmarked) [Example 66] | 3 nM
CC(C)C(O)C(=O)N(C)c1ccc2cc(-c3n[nH]c4c3CCC(C)(C)C4)[nH]c2c1 (centres unmarked) [Example 67] | 4 nM
CN(C(=O)C(O)c1ccccc1)c1ccc2cc(-c3n[nH]c4c3CCC(C)(C)C4)[nH]c2c1 (centres unmarked) [Example 68] | 7 nM
CN(C(=O)CC(C)(C)O)c1ccc2cc(-c3n[nH]c4c3CCC(C)(C)C4)[nH]c2c1 [Example 69] | 4 nM
CCC(=O)N(C)c1ccc2cc(-c3n[nH]c4c3CCC(C)(C)C4)[nH]c2c1 [Example 70] | 3 nM
CN(C(=O)CC1CCCO1)c1ccc2cc(-c3n[nH]c4c3CCC(C)(C)C4)[nH]c2c1 (centres unmarked) [Example 71] | < 3 nM
CN(C(=O)CC1CCCCC1)c1ccc2cc(-c3n[nH]c4c3CCC(C)(C)C4)[nH]c2c1 [Example 72] | 9 nM
CN(C(=O)COc1ccncc1)c1ccc2cc(-c3n[nH]c4c3CCC(C)(C)C4)[nH]c2c1 [Example 73] | < 3 nM
COC1CCC(C(=O)N(C)c2ccc3cc(-c4n[nH]c5c4CCC(C)(C)C5)[nH]c3c2)CC1 (centres unmarked) [Example 74] | 4 nM
CN(C(=O)C(C)(C)COCc1ccccc1)c1ccc2cc(-c3n[nH]c4c3CCC(C)(C)C4)[nH]c2c1 [Example 75] | 34 nM

Results, then the molecule that gave them:

IC50 | Compound
4 nM | CN(C(=O)C(C)(C)CO)c1ccc2cc(-c3n[nH]c4c3CCC(C)(C)C4)[nH]c2c1 [Example 76]
6 nM | CN(C(=O)[C@H](O)C1CCCCC1)c1ccc2cc(-c3n[nH]c4c3CCC(C)(C)C4)[nH]c2c1 [Example 77]
7 nM | CN(C(=O)[C@@H](O)C1CCCCC1)c1ccc2cc(-c3n[nH]c4c3CCC(C)(C)C4)[nH]c2c1 [Example 78]
13 nM | CN(C(=O)CN1CCCCC1)c1ccc2cc(-c3n[nH]c4c3CCC(C)(C)C4)[nH]c2c1 [Example 79]
3 nM | CN(C(=O)CN1CCOCC1)c1ccc2cc(-c3n[nH]c4c3CCC(C)(C)C4)[nH]c2c1 [Example 80]
8 nM | COC1CCN(CC(=O)N(C)c2ccc3cc(-c4n[nH]c5c4CCC(C)(C)C5)[nH]c3c2)CC1 [Example 81]
7 nM | CO[C@H]1CC[C@H](C(=O)N(C)c2ccc3cc(-c4n[nH]c5c4CCC(C)(C)C5)[nH]c3c2)CC1 [Example 82]
< 3 nM | CN(C(=O)CN1CCCC1=O)c1ccc2cc(-c3n[nH]c4c3CCC(C)(C)C4)[nH]c2c1 [Example 83]
< 3 nM | CN(c1ccc2cc(-c3n[nH]c4c3CCC(C)(C)C4)[nH]c2c1)C(=O)[C@H]1CC[C@@H](O)CC1 [Example 84]
4 nM | CO[C@H]1CC[C@@H](C(=O)N(C)c2ccc3cc(-c4n[nH]c5c4CCC(C)(C)C5)[nH]c3c2)CC1 [Example 85]
< 3 nM | CN(C(=O)COc1cccnc1)c1ccc2cc(-c3n[nH]c4c3CCC(C)(C)C4)[nH]c2c1 [Example 86]
< 3 nM | CN(C(=O)COC1CCOC1)c1ccc2cc(-c3n[nH]c4c3CCC(C)(C)C4)[nH]c2c1 (centres unmarked) [Example 87]
3 nM | CN(C(=O)COC1CCOCC1)c1ccc2cc(-c3n[nH]c4c3CCC(C)(C)C4)[nH]c2c1 [Example 88]
< 3 nM | CN(C(=O)Cn1ccnc1)c1ccc2cc(-c3n[nH]c4c3CCC(C)(C)C4)[nH]c2c1 [Example 89]
10 nM | CN(C(=O)CC1CCCC1)c1ccc2cc(-c3n[nH]c4c3CCC(C)(C)C4)[nH]c2c1 [Example 92]
48 nM | CN(C(=O)CCC1CCCCC1)c1ccc2cc(-c3n[nH]c4c3CCC(C)(C)C4)[nH]c2c1 [Example 93]
4 nM | CN(C(=O)CC1CCOCC1)c1ccc2cc(-c3n[nH]c4c3CCC(C)(C)C4)[nH]c2c1 [Example 94]
3 nM | CN(C(=O)C(O)C1CCOCC1)c1ccc2cc(-c3n[nH]c4c3CCC(C)(C)C4)[nH]c2c1 (centres unmarked) [Example 95]
3 nM | CN(C(=O)C(O)C1CCCOC1)c1ccc2cc(-c3n[nH]c4c3CCC(C)(C)C4)[nH]c2c1 (centres unmarked) [Example 96]
20 nM | CC(C(=O)N(C)c1ccc2cc(-c3n[nH]c4c3CCC(C)(C)C4)[nH]c2c1)C1CCCCC1 (centres unmarked) [Example 97]
3 nM | CC(C(=O)N(C)c1ccc2cc(-c3n[nH]c4c3CCC(C)(C)C4)[nH]c2c1)C1CCOCC1 (centres unmarked) [Example 98]
26 nM | COC1CCCC(C(=O)N(C)c2ccc3cc(-c4n[nH]c5c4CCC(C)(C)C5)[nH]c3c2)C1 (centres unmarked) [Example 99]
5 nM | COC1CCCC(C(=O)N(C)c2ccc3cc(-c4n[nH]c5c4CCC(C)(C)C5)[nH]c3c2)C1 (centres unmarked) [Example 100]

From patent US8299070B2, “Indole compounds and pharmaceutical use thereof” (Japan Tobacco Inc., priority 2009, dated 2012)
